Results on three compounds are retold here after article PMC2888720 (Journal of medicinal chemistry, 2009).

For assay [1], the system named is human neutrophils. As to the kind of experiment: Ca2+ mobilization in human neutrophils. In kind it is cell-based. The conditions noted are these: Neutrophil, read-out: EC50 Ca2+ mobilization.
The test system of assay [2] is human neutrophils. The assay can be described thus: Chemotaxis assay in human neutrophils. In kind it is cell-based. The settings on record: Neutrophil, read-out: EC50 Chemotaxis.
For assay [3], the system named is wild-type nontransfected HL-60 cells. The assay can be described thus: Ca2+ mobilization in wild-type nontransfected HL-60 cells. The settings on record: control cells which do not express FPRs. (Calcium flux is commonly read through the fluorescence of an indicator in the cells.)

The term EC50 denotes the concentration needed to bring the measured effect to its halfway point.

With `COc1cccc(Cc2cc(C)nn(CC(=O)Nc3ccc([N+](=O)[O-])cc3)c2=O)c1` [14p, 2-[5-(3-Methoxybenzyl)-3-methyl-6-oxo-6H-pyridazin-1-yl]-N-(4-nitrophenyl)-acetamide], the EC50 in the assay on human neutrophils [1] was 21700 ± 4200 nM; in the assay on human neutrophils [2] it was 1900 ± 600 nM.
Turning to `COc1cccc(Cc2cc(C)nn(CC(=O)Nc3ccc(Br)cc3)c2=O)c1` [14a, N-(4-Bromophenyl)-2-[5-(3-methoxybenzyl)-3-methyl-6-oxo-6H-pyridazin-1-yl]-acetamide], the “Ca2+ flux response in wild-type (nontransfected, undifferentiated) HL-60 cells” value in assay [3] is “no response was observed”.
Consider `COc1cccc(Cc2cc(C)nn(CC(=O)Nc3ccc4c(c3)OCO4)c2=O)c1` [14m, N-Benzo[1,3]dioxol-5-yl-2-[5-(3-methoxybenzyl)-3-methyl-6-oxo-6H-pyridazin-1-yl]-acetamide], for which the EC50 with human neutrophils [2] stood at 1200 ± 600 nM.
